From patent US9085520B2, “Composition for treating diabetes and metabolic diseases and a preparation method thereof” (KAOHSIUNG MEDICAL UNIVERSITY, priority 2011, dated 2015)
Where “and” joins values, the source holds several entries; their conditions need not be identical. Identical values can stand only once.

tested on: 3T3-L1 adipocytes; assay: glucose consumption (remaining glucose) in culture medium of 3T3-L1 adipocytes; format: cell-based; details: 30 μg/ml; culture medium of 3T3-L1 adipocytes after 24 hours; means ± SD, N = 3; control 310 ± 4.0
Experimental: After precursor adipocytes 3T3-L1 were induced as the matured adipocytes, culture medium with glucose (concentration of 300 mg/dl) and drugs were added, and the concentration of the remaining glucose in the culture medium were measured after 24 hours.
Adipose tissues are major sites for postprandial glucose uptake. Therefore, in vitro anti-diabetic screening model based on measuring glucose consumption after 24 hours in culture medium of 3T3-L1 adipocytes was developed. […] Accordingly, 60 chalcone derivatives with and without substitutions on A-ring were examined in our developed model. […] Structure-activity relationship (SAR) analyses data are also determined.

COc1ccc(/C=C/C(=O)c2ccccc2)cc1 [Compound 7, (E)-3-(4-methoxyphenyl)-1-phenylprop-2-en-1-one] and O=C(/C=C/c1ccc(O)cc1)c1ccccc1 [Compound 29, (E)-3-(4-hydroxyphenyl)-1-phenylprop-2-en-1-one] are within error of each other in “remaining glucose concentration in culture medium after 24 hours” value (from here on “remaining glucose concentration”): 261 ± 3.2 mg/dL for the first, 263 ± 5.6 mg/dL for the second.

COc1cccc(/C=C/C(=O)c2ccccc2)c1 [Compound 8, (E)-3-(3-methoxyphenyl)-1-phenylprop-2-en-1-one] and COc1cccc(/C=C/C(=O)c2ccccc2Br)c1 [Compound 13, (E)-1-(2-bromophenyl)-3-(3-methoxyphenyl)prop-2-en-1-one] are within error of each other in “remaining glucose concentration” value: 261 ± 7.2 mg/dL for the first, 249 ± 5.2 mg/dL for the second.

Compared with O=C(/C=C/c1cccc(OCc2ccccc2)c1)c1ccccc1O [Compound 11, (E)-3-(3-(benzyloxy)phenyl)-1-(2-hydroxyphenyl)prop-2-en-1-one], O=C(/C=C/c1cccc(OCc2ccccc2)c1)c1ccc(O)cc1O [Compound 34, (E)-3-(3-(benzyloxy)phenyl)-1-(2,4-dihydroxyphenyl)prop-2-en-1-one] is higher in “remaining glucose concentration” value: 256 ± 13.1 mg/dL for the first, 283 ± 2.6 mg/dL for the second.

Compared with COc1cccc(/C=C/C(=O)c2cccc(Br)c2)c1 [Compound 14, (E)-1-(3-bromophenyl)-3-(3-methoxyphenyl)prop-2-en-1-one], COc1cccc(/C=C/C(=O)c2cccc(F)c2)c1 [Compound 41, (E)-1-(3-fluorophenyl)-3-(3-methoxyphenyl)prop-2-en-1-one] is higher in “remaining glucose concentration” value: 262 ± 2.2 mg/dL for the first, 282 ± 10.1 mg/dL for the second.

COc1cccc(/C=C/C(=O)c2ccc(Cl)cc2)c1 [Compound 15, (E)-1-(4-chlorophenyl)-3-(3-methoxyphenyl)prop-2-en-1-one] and COc1cccc(/C=C/C(=O)c2ccc(Br)cc2)c1 [Compound 16, (E)-1-(4-bromophenyl)-3-(3-methoxyphenyl)prop-2-en-1-one] are within error of each other in “remaining glucose concentration” value: 272 ± 22.4 mg/dL for the first, 257 ± 10.0 mg/dL for the second.

Going from COc1ccc(/C=C/C(=O)c2cccc(Br)c2)cc1 [Compound 17, (E)-1-(3-bromophenyl)-3-(4-methoxyphenyl)prop-2-en-1-one] to COc1ccc(/C=C/C(=O)c2cccc(F)c2)cc1 [Compound 40, (E)-1-(3-fluorophenyl)-3-(4-methoxyphenyl)prop-2-en-1-one], the “remaining glucose concentration” value rises from 248 ± 8.0 mg/dL to 298 ± 15.5 mg/dL.

Going from COc1ccc(/C=C/C(=O)c2ccc(Br)cc2)cc1 [Compound 18, (E)-1-(4-bromophenyl)-3-(4-methoxyphenyl)prop-2-en-1-one] to COc1ccc(/C=C/C(=O)c2ccc(Cl)cc2)cc1 [Compound 47, (E)-1-(4-chlorophenyl)-3-(4-methoxyphenyl)prop-2-en-1-one], the “remaining glucose concentration” value rises from 261 ± 12.7 mg/dL to 293 ± 7.8 mg/dL.

O=C(/C=C/c1ccccc1)c1cc(Br)ccc1O [Compound 19, (E)-1-(5-bromo-2-hydroxyphenyl)-3-phenylprop-2-en-1-one] and COc1cccc(/C=C/C(=O)c2cc(Br)ccc2O)c1 [Compound 21, (E)-1-(5-bromo-2-hydroxyphenyl)-3-(3-methoxyphenyl)prop-2-en-1-one] are within error of each other in “remaining glucose concentration” value: 253 ± 7.8 mg/dL for the first, 260 ± 3.3 mg/dL for the second.

COc1ccc(/C=C/C(=O)c2cc(Br)ccc2O)cc1 [Compound 20, (E)-1-(5-bromo-2-hydroxyphenyl)-3-(4-methoxyphenyl)prop-2-en-1-one] and COc1ccc(/C=C/C(=O)c2cc(Cl)ccc2O)cc1 [Compound 37, (E)-1-(5-chloro-2-hydroxyphenyl)-3-(4-methoxyphenyl)prop-2-en-1-one] are within error of each other in “remaining glucose concentration” value: 254 ± 17.6 mg/dL for the first, 282 ± 16.4 mg/dL for the second.

First: O=C(/C=C/c1cccc(OCc2ccccc2)c1)c1cc(Br)ccc1O [Compound 22, (E)-3-(3-(benzyloxy)phenyl)-1-(5-bromo-2-hydroxyphenyl)prop-2-en-1-one]
Second: O=C(/C=C/c1ccc(OCc2ccccc2)cc1)c1cc(Br)ccc1O [Compound 23, (E)-3-(4-(benzyloxy)phenyl)-1-(5-bromo-2-hydroxyphenyl)prop-2-en-1-one]
The “remaining glucose concentration” value of the first is lower: 252 ± 0.1 mg/dL for the first, 256 ± 1.3 mg/dL for the second.

First: O=C(/C=C/c1ccc(O)cc1)c1ccccc1O [Compound 24, (2E)-1-(2-hydroxyphenyl)-3-(4-hydroxyphenyl)-2-propen-1-one]
Second: COc1ccc(/C=C/C(=O)c2ccccc2F)cc1 [Compound 28, (E)-1-(2-fluorophenyl)-3-(4-methoxyphenyl)prop-2-en-1-one]
The “remaining glucose concentration” value of the first is higher: 267 ± 3.4 mg/dL for the first, 259 ± 0.3 mg/dL for the second.

Going from O=C(/C=C/c1ccc(OCc2ccccc2)cc1)c1ccccc1O [Compound 25, (E)-3-(4-(benzyloxy)phenyl)-1-(2-hydroxyphenyl)prop-2-en-1-one] to O=C(/C=C/c1ccc(OCc2ccccc2)cc1)c1ccccc1I [Compound 53, (E)-3-(4-(benzyloxy)phenyl)-1-(2-iodophenyl)prop-2-en-1-one], the “remaining glucose concentration” value falls from 260 ± 3.8 mg/dL to 249 ± 3.6 mg/dL.

O=C(/C=C/c1cccc(OCc2ccccc2)c1)c1ccccc1 [Compound 30, (E)-3-(3-(benzyloxy)phenyl)-1-phenylprop-2-en-1-one] and O=C(/C=C/c1ccc(OCc2ccccc2)cc1)c1ccccc1 [Compound 31, (E)-3-(4-(benzyloxy)phenyl)-1-phenylprop-2-en-1-one] are within error of each other in “remaining glucose concentration” value: 285 ± 8.2 mg/dL for the first, 274 ± 13.0 mg/dL for the second.

Going from O=C(/C=C/c1ccc2c(c1)OCO2)c1ccccc1 [Compound 32, (E)-3-(benzo[d][1,3]dioxol-5-yl)-1-phenylprop-2-en-1-one] to O=C(/C=C/c1ccc2c(c1)OCO2)c1ccccc1O [Compound 33, (E)-3-(benzo[d][1,3]dioxol-5-yl)-1-(2-hydroxyphenyl)prop-2-en-1-one], the “remaining glucose concentration” value rises from 252 ± 18.1 mg/dL to 279 ± 7.6 mg/dL.

COc1cccc(/C=C/C(=O)c2cc(F)ccc2O)c1 [Compound 35, (E)-1-(5-fluoro-2-hydroxyphenyl)-3-(3-methoxyphenyl)prop-2-en-1-one] and COc1cccc(/C=C/C(=O)c2cc(Cl)ccc2O)c1 [Compound 38, (E)-1-(5-chloro-2-hydroxyphenyl)-3-(3-methoxyphenyl)prop-2-en-1-one] are within error of each other in “remaining glucose concentration” value: 297 ± 9.3 mg/dL for the first, 266 ± 23.3 mg/dL for the second.

COc1cccc(/C=C/C(=O)c2ccccc2F)c1 [Compound 39, (E)-1-(2-fluorophenyl)-3-(3-methoxyphenyl)prop-2-en-1-one] and COc1cccc(/C=C/C(=O)c2ccc(F)cc2)c1 [Compound 42, (E)-1-(4-fluorophenyl)-3-(3-methoxyphenyl)prop-2-en-1-one] are the same in “remaining glucose concentration” value: 285 ± 4.4 mg/dL for the first, 285 ± 1.6 mg/dL for the second.

O=C(/C=C/c1ccccc1)c1cccc(Cl)c1 [Compound 43, (E)-1-(3-chlorophenyl)-3-phenylprop-2-en-1-one] and O=C(/C=C/c1ccccc1)c1cccc(Br)c1 [Compound 49, (E)-1-(3-bromophenyl)-3-phenylprop-2-en-1-one] are within error of each other in “remaining glucose concentration” value: 291 ± 9.2 mg/dL for the first, 299 ± 7.3 mg/dL for the second.

Going from COc1cccc(/C=C/C(=O)c2cccc(Cl)c2)c1 [Compound 44, (E)-1-(3-chlorophenyl)-3-(3-methoxyphenyl)prop-2-en-1-one] to COc1cccc(/C=C/C(=O)c2cccc(I)c2)c1 [Compound 57, (E)-1-(3-iodophenyl)-3-(3-methoxyphenyl)prop-2-en-1-one], the “remaining glucose concentration” value falls from 287 ± 13.4 mg/dL to 246 ± 11.3 mg/dL.

Going from COc1ccc(/C=C/C(=O)c2cccc(Cl)c2)cc1 [Compound 45, (E)-1-(3-chlorophenyl)-3-(4-methoxyphenyl)prop-2-en-1-one] to O=C(/C=C/c1ccccc1)c1ccc(Cl)cc1 [Compound 46, (E)-1-(4-chlorophenyl)-3-phenylprop-2-en-1-one], the “remaining glucose concentration” value rises from 255 ± 27.1 mg/dL to 295 ± 8.8 mg/dL.

Going from O=C(/C=C/c1ccccc1)c1ccccc1Br [Compound 48, (E)-1-(2-bromophenyl)-3-phenylprop-2-en-1-one] to O=C(/C=C/c1ccccc1)c1ccc(Br)cc1 [Compound 50, (E)-1-(4-bromophenyl)-3-phenylprop-2-en-1-one], the “remaining glucose concentration” value rises from 249 ± 20.8 mg/dL to 295 ± 5.8 mg/dL.

In the case of O=C(/C=C/c1ccccc1)c1cccc(I)c1 [Compound 55, (E)-1-(3-iodophenyl)-3-phenylprop-2-en-1-one], the “remaining glucose concentration” value is reported as 294 ± 7.3 mg/dL.

With O=C(/C=C/c1cccc(OCc2ccccc2)c1)c1ccccc1I [Compound 54, (E)-3-(3-(benzyloxy)phenyl)-1-(2-iodophenyl)prop-2-en-1-one] the “remaining glucose concentration” value was 238 mg/dL and 238 ± 1.1 mg/dL.
In the case of COc1ccc(/C=C/C(=O)c2cccc(I)c2)cc1 [Compound 56, (E)-1-(3-iodophenyl)-3-(4-methoxyphenyl)prop-2-en-1-one], the “remaining glucose concentration” value is reported as 233 mg/dL and 233 ± 3.5 mg/dL.

same assay, conditions: FIG. 1; 30 μg/ml, medium glucose 300 mg/dl, remaining glucose after 24 hours

For COc1cccc(/C=C/C(=O)c2ccc(Cl)cc2)c1 [Compound 15, (E)-1-(4-chlorophenyl)-3-(3-methoxyphenyl)prop-2-en-1-one], the “glucose absorption activity of adipocytes 3T3-L1 (anti-hyperglycemic ability)” value was “not significantly different”.
With COc1cccc(/C=C/C(=O)c2ccc(Br)cc2)c1 [Compound 16, (E)-1-(4-bromophenyl)-3-(3-methoxyphenyl)prop-2-en-1-one] the “glucose absorption activity of adipocytes 3T3-L1 (anti-hyperglycemic ability)” value was “not significantly different”.
